Test results: patent publication US20240336658A1, “CYCLIC PEPTIDE AND PREPARATION METHOD AND USE THEREOF” (HANGZHOU HUIBO SCIENCE AND TECHNOLOGY CO., LTD, priority 2021, published 2024)
Entries after “also recorded” stand apart in the source; their conditions may differ. Read-outs that look alike come from different tables or passages of the source.

Legend:
[1] = system: full-thickness skin defect wound surfaces; assay: Effect of Hst1-MAD cyclic peptide on wound repair in mice (Example 22): healing rate, histology, immunohistochemistry, immunofluorescence double staining, Western Blot; type: in vivo, C57 BL/6 mice
Experimental: […]. 36 healthy male special pathogen-free grade C57 BL/6 mice (purchased from Guangdong Experimental Animal Center) of 6-8 weeks old and weighing 22-28 g. They were intraperitoneally injected with 5 ml/kg of 1% pentobarbital sodium for anesthesia. After the mice had no corneal reflex, the hair on their backs was carefully removed and disinfected with alcohol. […] full-thickness skin defect wound surfaces were prepared on the back of each mouse by using a circular skin punch. […]. Each wound surface was added with 0.5 ml of four drugs respectively, and administration was conducted every day until the wound surfaces of the experimental groups healed. Photographs were taken on days 0, 3, 5, and 10 after surgery, and wound tissues were sampled on days 3, 5, and 10 for subsequent pathological staining.
was observed and photographed with a digital camera (see FIG. 19), and the wound healing rate was calculated (see FIG. 20). Wound healing rate=(wound area immediately after injury−unhealed wound area at each time point)÷wound area immediately after injury×100%.
The wound specimens were fixed in 4% paraformaldehyde for 48 hours, rinsed with tap water for 10 minutes, dehydrated with graded ethanol, permeabilized with xylene, and embedded in paraffin to prepare 4 μm thick sections. Some sections were taken and subjected to HE staining to detect an epidermal thickness and subjected to Masson staining to detect newly grown collagen. Through hematoxylin-cosin staining (HE), the effects of the four groups of drugs on newly grown epidermal at the wound surface on day 10 were evaluated (FIGS. 21 and 22). Through Masson staining, the effects of the four groups of drugs on newly grown collagen at the wound surface on days 5 and 10 were evaluated (FIGS. 23 and 24). 5 sections were taken from each mouse, and 5 fields of view were selected for each section. Data analysis was performed using the software Image-pro Plus.
and rehydrated, subjected to antigen thermal repair with a 0.1 mol/L citric acid buffer (with a pH value of 6.0) for 20 minutes, treated with hydrogen peroxide with a volume fraction of 10% for inactivation of endogenous peroxidase for 10 minutes, and blocked with 50 g/L of bovine serum albumin for 2 hours. It was added with a rabbit anti-mouse CD31 primary antibody (with a dilution ratio of 1:300) and a mouse anti-VEGF (with a dilution ratio of 1:100), incubated overnight at 4° C., and washed with PBS. It was rewarmed for 1 hour, washed with PBS, added dropwise with ready-to-use biotinylated goat anti-mouse and goat anti-rabbit IgG secondary antibodies, incubated for 2 hours, and washed with PBS. It was subjected to DAB development, hematoxylin counterstaining. gradient ethanol dehydration, xylene permeabilization, and resin blocking. 5 sections were taken from each mouse, and 5 fields of view were selected for each section. The sections were observed under a 400× inverted fluorescence microscope, and analyzed for the number of CD31-positive blood vessels (see FIG. 25) and VEGF expression amounts (see FIG. 26) by using Image-pro Plus software.
The specific steps were: the previous steps were the same as those of 1.3.3, and they were incubated with the antibodies MHCII (orb101661; 1:500; Biorbyt Biotechnology Co., Ltd., Wuhan, CN), CD11c (97585; 1:200; Cell Signaling Technology Inc., Boston, MA), CD68 (GB11067; 1:300; Servicebio Inc.), CD80 (GB11034; 1:300; Servicebio Inc.), CD206 (GB11062; 1:500; Servicebio Inc.), claudin1 (37-4900; 1:100; Thermo Fisher Scientific Co., Ltd, Shanghai, CN) and claudin2 (32-5600; 1:200; Thermo Fisher Scientific Co., Ltd.) at 4° C. overnight. The fluorescent-labeled secondary antibodies were incubated at room temperature for 1 h, followed by 4′,6-diamidino-2′-phenylindole (DAPI) (G1012; Google Biotechnology Co., Ltd., Wuhan, CN). The stained sections were photographed by using a fluorescence microscope (Nikon Eclipse TI-SR. Tokyo, Japan). […]

fibroblasts (NIH/3T3) = assay: Scratch experiment, Hst1-MAD cyclic peptides (Example 23); type: cell-based; details: dose required to achieve the same pharmaceutical effect in the scratch experiment
From the text: In this example, the propargylglycine-Hst1-MAD cyclic peptide, the homopropargylglycine-Hst1-MAD cyclic peptide, the dihomopropargylglycine-Hst1-MAD cyclic peptide and the linear Hst1 prepared in Examples 13, 14, and 15, and the Hst1-MAD head-to-tail cyclic peptide or N-terminal and C-terminal cyclized peptide prepared by the amide bond cyclization method provided by the literature of for example Sortase A as a tool for high-yield histatin cyclization, Jan G. M. Bolscher, The FASEB Journal. Research Communication, were adopted respectively, the reaction time was recorded, the yield of the reaction product was detected by HPLC, the proportion of side reactions in the reaction product was calculated, and activity comparison was performed. The activity comparison method was to calculate the dose required to achieve the same pharmaceutical effect through a scratch experiment. […] After 12 hours and 24 hours of culture, the scratched area of each group was calculated by using imageJ (Rawak Software, Inc. Germany) software, and the scratch area at 0 hour was an initial scratch area. The scratch healing rate was calculated in the following manner: W % (scratch healing rate)=(W0−Wt)/W0×100%, where W0=an initial scratch area, and Wt=a remaining scratch area; and the results were as shown in Table 14.

Q: Which ring closure, conversion (enzyme bond, Sortase A) does the source give for “Cyclized Hst1 prepared by Sortase A enzymatic method” here?
A: 90%

Q: Which “inhibitory effects on inflammatory factors IL-6 and MIP-1β” value ([1]; Western Blot, 1 μM Click-Hst1-MAD, 1 μM Hst1-MAD) does the source give for “Linear Hst1-MAD: shortest sequence that maintains Hst1 activity, 20th to 32nd amino acids of Hst1, SEQ ID NO.13 (SHREFPFYGDYGS)” here?
A: significantly better than those of the control group and the 10 μM Histatin1 group

Q: What about the “expression levels of Nrf2 and HO-1” value ([1]; day 3 after surgery, Western Blot, 1 μM Click-Hst1-MAD, 1 μM Hst1-MAD) of the same substance?
A: increased compared with those in the Control group

Q: What about the VEGF expression amount ([1]; day 5, 1 μM Click-Hst1-MAD, 10 μM Histatin1, 1 μM Hst1-MAD compared with each other) of the same substance?
A: comparable

Q: What about the “expression levels of the dermal collagen” value ([1]; day 5, 1 μM Hst1-MAD and 10 μM Histatin1 compared with each other) of the same substance?
A: equivalent

Q: What about the “epidermal thickness at the wound surface” value ([1]; day 10, HE staining, 1 μM Click-Hst1-MAD, 1 μM Hst1-MAD, 10 μM Histatin1) of the same substance?
A: thinnest epidermal thickness

Q: What about the Claudin1 expression intensity ([1]; day 10, immunofluorescence, 1 μM Click-Hst1-MAD, 1 μM Hst1-MAD, 10 μM Histatin1) of the same substance?
A: equivalent expression level of Claudin1

Q: What about the “healing rate of the wound surface” value ([1]; days 3 and 5, 1 μM Click-Hst1-MAD, 1 μM Hst1-MAD linear peptide, 10 μM Histatin1) of the same substance?
A: equivalent to that of the 10 μM Histatin linear peptide group

Q: What about the “number of dendritic cells (MHCII+ and CD11c+)” value ([1]; days 3 and 5 evaluated, 1 μM Click-Hst1-MAD, 1 μM Hst1-MAD, 10 μM Histatin1) of the same substance?
A: slightly lower than that of the 10 μM Histatin1 group; also recorded: significantly higher than that in the Control group

Q: What about the “number of M1 macrophages (CD68+ and CD80+)” value ([1]; days 3 and 5 evaluated, 1 μM Hst1-MAD, 10 μM Histatin1) of the same substance?
A: slightly higher than that in the 10 μM Histatin1 group; also recorded: lower than that in the Control group

Q: What about the “number of CD31-positive blood vessels” value ([1]; days 5 and 10, immunohistochemistry, 1 μM Click-Hst1-MAD, 1 μM Hst1-MAD, 10 μM Histatin1) of the same substance?
A: significantly higher than that in the Control group

Q: What about the “Dosage of agents required for scratch test” value (fibroblasts (NIH/3T3)) of the same substance?
A: 8 µM

Q: Which ring closure, conversion (amide bond) does the source give for Hst1 cyclized through amide bonds here?
A: 3%
